Columns and labels:
XG20 = test: Cell viability assay (Cell Titer-Glo), HMCL; type: cell-based; conditions: Homo sapiens, 96 h
Procedure: (§1) The panel of 17 HMCL cell lines were incubated with increasing concentrations of Ironomycin (A), AM23 (B) or vehicle for 96H.
(§2) HMCL cell lines were cultured for 4 days in 96-well flat-bottom microtiter plates in RPMI 1640 medium or DMEM medium, 10% or 20% FCS (control medium) in the presence of various compounds. The number of viable cells in culture was determined using the Cell Titer-Glo Luminescent Cell Viability Assay from Promega, Madison, WI, USA using a Centro LB 960 luminometer (Berthold Technologies, Bad Wildbad, Germany).
(§3) This test is based on quantitation of the intracellular ATP present, which signals the presence of metabolically active cells. Data are expressed as the mean percentage of six replicates, normalized to the untreated control.

XG-1 = test: Cell viability assay (Cell Titer-Glo), HMCL; type: cell-based; conditions: Homo sapiens, 96 h
Procedure: as §1, §2, §3

XG21 = test: Cell viability assay (Cell Titer-Glo), HMCL; type: cell-based; conditions: Homo sapiens, 96 h
Procedure: as §1, §2, §3

XG6 = test: Cell viability assay (Cell Titer-Glo), HMCL; type: cell-based; conditions: Homo sapiens, XG6, 96 h
Procedure: as §1, §2, §3

XG28 = test: Cell viability assay (Cell Titer-Glo), HMCL; type: cell-based; conditions: Homo sapiens, 96 h
Procedure: as §1, §2, §3

XG12 = test: Cell viability assay (Cell Titer-Glo), HMCL; type: cell-based; conditions: Homo sapiens, 96 h
Procedure: as §1, §2, §3

XG-7 = test: Cell viability assay (Cell Titer-Glo), HMCL; type: cell-based; conditions: Homo sapiens, 96 h
Procedure: as §1, §2, §3

XG24 = test: Cell viability assay (Cell Titer-Glo), HMCL; type: cell-based; conditions: Homo sapiens, 96 h
Procedure: as §1, §2, §3

OPM-2 = test: Cell viability assay (Cell Titer-Glo), HMCL; type: cell-based; conditions: Homo sapiens, OPM-2, 96 h
Procedure: as §1, §2, §3

MOLP-8 = test: Cell viability assay (Cell Titer-Glo), HMCL; type: cell-based; conditions: Homo sapiens, MOLP-8, 96 h
Procedure: as §1, §2, §3

primary MM cells = test: Assay on primary MM cells of patients (flow cytometry); type: cell-based, human; conditions: n=5, with IL-6
Procedure: (§4) Primary MM cells were treated with Ironomycin (A) or AM-23 (B) and incubated during 96H with IL-6. The toxicity on MM cells and non-MM cells was analyzed by flow cytometry and expressed in % of control.
(§5) Bone marrow samples were collected after patients' written informed consent in accordance with the Declaration of Helsinki and institutional research board approval from Montpellier University hospital. Cells are obtained from […] of 5 patients with MM. Cells are obtained by density gradient separation and qualified by Flow cytometry.
(§6) Cells are cultured in Gibco® RPMI-1640 (Glutamax) medium (#6187-010) with 10% FBS at a density of 0.5×10^6 Cell/mL with 2 ng/mL of interleukin-6. Cells are seeded 24H after thawing and treated with various compounds during 72H.
(§7) Total cells were counted with trypan blue and stained with the panel CD38-APC, CD138-PE (Beckman coulter) and analyzed by flow cytometry (Fortessa cytometer, BD Pharmigen). Tumorous MM cells were gated on CD38+ and CD138+.

MM cell lines = test: Cell growth inhibition in panel of MM cell lines; type: cell-based, human; conditions: 96H
Procedure: as §1, §2, §3
The therapeutic interest of iron metabolism inhibitors AM5 (Ironomycin) and AM23 was further investigated using large collection of 18 MM cell lines (Moreaux J et al. Haematologica 2011; Vikova V et al. Theranostics 2019). The IC50 of Ironomycin and AM23 respectively are illustrated in the Table 5 hereunder: […]

non-MM cells = test: Assay on primary samples of patients, non-MM cells (flow cytometry); type: cell-based, human; conditions: primary samples of patients, n=5
Procedure: as §4, §5, §6, §7

Structure (SMILES): CC[C@@H](C(=O)[C@@H](C)[C@@H](O)[C@H](C)[C@@H]1O[C@@H]([C@@H](CC)C(=O)O)CC[C@@H]1C)[C@H]1O[C@]2(C=C[C@@H](NC3CC3)[C@]3(CC[C@@](C)([C@H]4CC[C@](O)(CC)[C@H](C)O4)O3)O2)[C@H](C)C[C@@H]1C [AM23]
- IC50 (XG20): 0.154 µM
- IC50 (XG-1): 0.0211 µM
- IC50 (XG21): 0.0343 µM
- IC50 (XG6): 0.0038 µM
- IC50 (XG28): 0.013 µM
- IC50 (XG12): 0.0008 µM
- IC50 (XG-7): 0.0118 µM
- IC50 (XG24): 0.0088 µM
- IC50 (OPM-2): 0.0014 µM
- IC50 (MOLP-8): 0.013 µM
- toxicity on primary MM cells of patients (primary MM cells): validated the therapeutic interest
- cell growth inhibition / toxicity on MM cell lines (MM cell lines): validated the toxicity
- cell growth inhibition / toxicity on MM cell lines (MM cell lines; listed as AM-23): kill MM cells with nanomolar concentration
- toxicity for non-tumoral cells (non-MM cells): without significant toxicity
